According to the supplement of paper PMC7108870:

Tests used:
HEK293sieSTAT3(Y640F) [1] = assay: drug sensitivity score (DSS), cytotoxicity CellTox Green (DSS (dimensionless)); higher = more cytotoxic; extreme values may be limits of the assay; settings: 72 h; STAT3 variant: Y640F (constitutively active)
Method in brief: (§1)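 A drug sensitivity score, based on the area of the dose-response curve, was calculated in Breeze after normalising values to negative and positive control wells. It came from HEK293 cells carrying a STAT3-dependent luciferase reporter and overexpressing wild-type or mutant STAT3, plated at 20 μl of 100,000 cells/ml onto compounds acoustically pre-plated at 5 concentrations in 10-fold dilutions in 384-well plates. Following 72 hours at 37°C and 5% CO2, CellTox Green fluorescence (485/520 nm) and then CellTiter-Glo luminescence were read on a PHERAstar FS.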

HEK293sieSTAT3(wt) [2] = assay: as above; settings: 72 h; STAT3 variant: wild type
Method in brief: as §1

HEK293sieSTAT3(Y640F) [3] = assay: drug sensitivity score (DSS), viability CellTiter-Glo (DSS (dimensionless)); higher = more growth inhibition; extreme values may be limits of the assay; settings: 72 h; STAT3 variant: Y640F (constitutively active)
Method in brief: as §1

HEK293sieSTAT3(wt) [4] = assay: as above; settings: 72 h; STAT3 variant: wild type
Method in brief: as §1

Row | Structure (SMILES) | drug sensitivity score (HEK293sieSTAT3(Y640F) [1]) | drug sensitivity score (HEK293sieSTAT3(wt) [2]) | drug sensitivity score (HEK293sieSTAT3(Y640F) [3]) | drug sensitivity score (HEK293sieSTAT3(wt) [4])
1 | Cc1cnc(NC(=O)Nc2cc(Br)c(C)cc2OC[C@@H]2CNCCO2)cn1 [Rabusertib] (top concentration tested 1000 nM) | 0.03 | 1.61 | 5.38 | 5.03
2 | C[C@@H]1C[C@H]2O[C@@H]2/C=C\C=C\C(=O)Cc2c(Cl)c(O)cc(O)c2C(=O)O1 [Radicicol] (top concentration tested 10000 nM) | 7.65 | 14.4 | 19.5 | 25.1
3 | CC(C)(C)Cn1c(N)nc2ccc(-c3[nH]c(C(C)(C)C)nc3-c3ccc(F)cc3)nc21 [Ralimetinib] (top concentration tested 10000 nM) | 0.02 | 0 | 0.9 | 0
4 | O=C(c1ccc(OCCN2CCCCC2)cc1)c1c(-c2ccc(O)cc2)sc2cc(O)ccc12 [Raloxifene] (top concentration tested 10000 nM) | 0 | 6.26 | 3.8 | 5.05
5 | Cc1nc(=O)c2cc(CN(C)c3ccc(C(=O)N[C@@H](CCC(=O)O)C(=O)O)s3)ccc2[nH]1 [Raltitrexed] (top concentration tested 1000 nM) | 0 | 2.49 | 20.1 | 15.1
6 | CNC(=O)c1cc(Oc2ccc(NC(=O)Nc3cc(C(C)(C)C)nn3-c3ccc4ncccc4c3)c(F)c2)ccn1 [Rebastinib] (top concentration tested 1000 nM) | 0 | 1.16 | 0 | 0
7 | COc1cc(F)c(F)c(Nc2ccc(I)cc2F)c1NS(=O)(=O)C1(C[C@H](O)CO)CC1 [Refametinib] (top concentration tested 10000 nM) | 0 | 0 | 2.4 | 1.58
8 | CNC(=O)c1cc(Oc2ccc(NC(=O)Nc3ccc(Cl)c(C(F)(F)F)c3)c(F)c2)ccn1 [Regorafenib] (top concentration tested 10000 nM) | 0 | 0 | 6.11 | 6.43
9 | CN(C)Cc1ccc(S(=O)(=O)n2ccc(/C=C/C(=O)NO)c2)cc1 [Resminostat] (top concentration tested 10000 nM) | 5.95 | 6.75 | 11.5 | 12.3
10 | CN(C)C(=O)c1cc2cnc(Nc3ccc(N4CCNCC4)cn3)nc2n1C1CCCC1 [Ribociclib] (top concentration tested 10000 nM) | 0.06 | 2.66 | 4.33 | 5.65
11 | CO[C@H]1C[C@@H]2CC[C@@H](C)[C@@](O)(O2)C(=O)C(=O)N2CCCC[C@H]2C(=O)O[C@H]([C@H](C)C[C@@H]2CC[C@@H](OP(C)(C)=O)[C@H](OC)C2)CC(=O)[C@H](C)/C=C(\C)[C@@H](O)[C@@H](OC)C(=O)[C@H](C)C[C@H](C)/C=C/C=C/C=C/1C [Ridaforolimus] (top concentration tested 100 nM) | 0 | 0 | 8.94 | 13.9
12 | COc1cc(OC)c(/C=C/S(=O)(=O)Cc2ccc(OC)c(NCC(=O)O)c2)c(OC)c1 [Rigosertib] (top concentration tested 10000 nM) | 6.71 | 18.7 | 21.8 | 21.9
13 | C=CC(=O)Nc1cccc(Nc2nc(Nc3ccc(N4CCN(C(C)=O)CC4)cc3OC)ncc2C(F)(F)F)c1 [Rociletinib] (top concentration tested 10000 nM) | 0.23 | 4.1 | 8.18 | 7.99
14 | O=C(CCCCCCNC(=O)c1cnc(N(c2ccccc2)c2ccccc2)nc1)NO [Rocilinostat] (top concentration tested 10000 nM) | 1.02 | 0.53 | 8 | 6.92
15 | CS(=O)(=O)c1ccc(C2=C(c3ccccc3)C(=O)OC2)cc1 [Rofecoxib] (top concentration tested 10000 nM) | 0 | 0 | 0 | 0
16 | C/C=C1\NC(=O)[C@H]2CSSCC/C=C/[C@H](CC(=O)N[C@H](C(C)C)C(=O)N2)OC(=O)[C@H](C(C)C)NC1=O [Romidepsin] (top concentration tested 1000 nM) | 23.6 | 29.9 | 32.4 | 29.5
17 | CN(C)C[C@@H]1CCn2cc(c3ccccc32)C2=C(C(=O)NC2=O)c2cn(c3ccccc23)CCO1 [Ruboxistaurin] (top concentration tested 10000 nM) | 6.6 | 6.85 | 9 | 8.97
18 | CNCc1ccc(-c2[nH]c3cc(F)cc4c3c2CCNC4=O)cc1 [Rucaparib] (top concentration tested 10000 nM) | 0 | 0.89 | 4.37 | 4.23
19 | N#CC[C@H](C1CCCC1)n1cc(-c2ncnc3[nH]ccc23)cn1 [Ruxolitinib] (top concentration tested 10000 nM) | 0.39 | 0.1 | 2.89 | 3.2
20 | CC(C)N(CCCNC(=O)Nc1ccc(C(C)(C)C)cc1)C[C@H]1O[C@@H](n2cc(Br)c3c(N)ncnc32)[C@H](O)[C@@H]1O [SGC0946] (top concentration tested 10000 nM) | 0.07 | 6.85 | 3.05 | 7.15
21 | COc1ccc(CCc2nc3cc(-c4c(C)noc4C)ccc3n2C[C@H](C)N2CCOCC2)cc1Cl [SGC-CBP30] (top concentration tested 25000 nM) | 0.32 | 4.24 | 3.16 | 4.3
